Source: patent US20250154156A1, “QUINAZOLINE DERIVATIVE AS KRAS G12C MUTATION INHIBITOR” (Shenzhen Forward Pharmaceuticals Co., Limited, priority 2022, published 2025)

Tests used:
[1] = system: NCI-H358 cells (KRAS G12C mutant cell line); assay: Proliferation experiment of NCI-H358 cells (Cell Titer-Glo); assay type: cell-based; conditions: Homo sapiens, 72 hours, read-out: Test Example 1 IC50
Description: (§1) According to the solution described in Cell Titer-Glo Luminescent cell Viability Assay (Promega catalog number #G7570) of Promega Corporation, the number of living cells in the culture was detected. 90 μL of cells (8,000 cells/well) were cultured in a growth medium in a Corning black transparent bottom 96-well plate and were cultured overnight in a 5% CO2 humidified incubator at 37° C. The compound diluted serially in 100% DMSO was added to the cells by a pipette, and the cells were cultured for another 72 hours. 100 μL of the well-mixed Cell Titer-Glo reagent was added to the cells in the 96-well culture plate to lyse the cells and gently mixed. Subsequently, […] was detected on an Envision microplate detector, and the data of each compound was obtained. Finally, the data was input into a suitable software package (such as Prism) for curve fitting analysis.

[2] = system: NCI-H23 cells (KRAS G12C mutant cell line); assay: Proliferation experiment of NCI-H23 cells (Cell Titer-Glo); assay type: cell-based; conditions: Homo sapiens, 72 hours, read-out: Test Example 2 IC50
Description: Human lung cancer cell line NCI-H23 (ATCC, CRL-5800) was a KRAS G12C mutant cell line.
as §1

[3] = target: Ba/F3 (KRAS-G12C-Y96C) cells (Homo sapiens, UniProt P01116, G12C/Y96C, cells depend on it); assay: Proliferation experiment of Ba/F3 (KRAS-G12C-Y96C) cells; assay type: cell-based; conditions: 72 hours, Cell Titer-Glo, read-out: Test Example 3 IC50
Description: Engineered cell strain Ba/F3 (KRAS-G12C-Y96C) was a cell strain constructed by the inventors according to the methods described in Warmuth M. et al, Curr Opin Oncol. […] The cells were grown at 37° C. in a humidified incubator with […].
as §1, with “(3,000” for “(8,000”, “[…]” for “5%”

[4] = target: Ba/F3 (KRAS-G12C-H95Q) cells (Homo sapiens, UniProt P01116, G12C/H95Q, cells depend on it); assay: Proliferation experiment of Ba/F3 (KRAS-G12C-H95Q) cells; assay type: cell-based; conditions: 72 hours, Cell Titer-Glo, read-out: Test Example 4 IC50
Description: Engineered cell strain Ba/F3 (KRAS-G12C-H95Q) was a cell strain constructed by the inventors according to the methods described in Warmuth M. et al, Curr Opin Oncol. […] The cells were grown at 37° C. in a humidified incubator with […].
as §1, with “(3,000” for “(8,000”

[5] = target: Ba/F3 (KRAS-G12C-R68S) cells (Homo sapiens, UniProt P01116, G12C/R68S, cells depend on it); assay: Proliferation experiment of Ba/F3 (KRAS-G12C-R68S) cells; assay type: cell-based; conditions: 72 hours, Cell Titer-Glo, read-out: Test Example 5 IC50
Description: Engineered cell strain Ba/F3 (KRAS-G12C-R68S) was a cell strain constructed by the inventors according to the methods described in Warmuth M. et al, Curr Opin Oncol. […] The cells were grown at 37° C. in a humidified incubator with 5% CO2.
as §1, with “(3,000” for “(8,000”

[6] = target: Ba/F3 (KRAS-G12C-Q99L) cells (Homo sapiens, UniProt P01116, G12C/Q99L, cells depend on it); assay: Proliferation experiment of Ba/F3 (KRAS-G12C-Q99L) cells; assay type: cell-based; conditions: 72 hours, Cell Titer-Glo, read-out: Test Example 6 IC50
Description: Engineered cell strain Ba/F3 (KRAS-G12C-Q99L) was a cell strain constructed by the inventors according to the methods described in Warmuth M. et al, Curr Opin Oncol. […] The cells were grown at 37° C. in a humidified incubator with 5% CO2.
as §1, with “(3,000” for “(8,000”

[7] = In vitro human liver microsome stability experiment; assay type: in vitro ADME; conditions: human liver microsomes; for half-life / microsomal CLint: 1 mg/mL microsome protein, NADPH, 37° C.; for microsomal CLint: read-out: CLint(mic); for CLint scaled: scaled to liver
Description: Eight 96-well incubation plates were prepared, named [NT], Blank60, and NCF60, respectively. […] No compound to be tested or control compound was added to the Blank60 plate and samples were taken after 60 minutes of incubation. The NCF60 plate, in which a potassium phosphate buffer was used instead of an NADPH regeneration system solution (Sigma, N0505), was incubated for 60 minutes. […] Only the working solution of microsomes was added to the Blank60 plate, and the incubation plates Blank60, T5, T15, T30, T45, and T60 except TO and NCF60 were then placed in a water bath at 37° C. for pre-incubation for about 10 minutes. To the TO plate sample, 600 μL of a stop solution (acetonitrile:methanol (95:5, v/v) solution containing 100 ng/mL tolbutamide (Sigma, T0891)) was added first, and then an NADPH regeneration system working solution was added. 98 μL of a potassium phosphate buffer was added to each well of the NCF60 plate and incubated for 60 minutes. After the pre-incubation in the incubation plates Blank60, T5, T15, T30, T45, and T60 was complete, 98 μL of the NADPH regeneration system working solution was added to each sample well to initiate the reaction. After an appropriate incubation time (such as 5, 15, 30, 45, and 60 minutes), 600 μL of the stop solution was added to each sample well and control sample well in the Blank60, […] the reaction. All the sample plates were shaken evenly and centrifuged at 3220×g for 20 minutes. 200 μL of each test sample supernatant was taken and diluted into 200 μL of an aqueous solution containing 0.3% formic acid for LC-MS/MS analysis, and 100 μL of the control sample supernatant was taken and diluted into 300 μL of pure water for LC-MS/MS analysis. Calculations were carried out according to the following formulas: […]

Sequence of Ba/F3 (KRAS-G12C-H95Q) cells (P01116 whole entry G12C/H95Q): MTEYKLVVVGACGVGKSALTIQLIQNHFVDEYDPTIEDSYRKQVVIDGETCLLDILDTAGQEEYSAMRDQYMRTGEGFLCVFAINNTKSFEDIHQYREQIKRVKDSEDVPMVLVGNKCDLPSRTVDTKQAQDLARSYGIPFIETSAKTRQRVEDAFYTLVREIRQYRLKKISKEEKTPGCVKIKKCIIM
Sequence of Ba/F3 (KRAS-G12C-Q99L) cells (P01116 whole entry G12C/Q99L): as the sequence (P01116 whole entry G12C/H95Q) above, with Q95H, Q99L counted along it
Sequence of Ba/F3 (KRAS-G12C-R68S) cells (P01116 whole entry G12C/R68S): as the sequence (P01116 whole entry G12C/H95Q) above, with R68S, Q95H counted along it
Sequence of Ba/F3 (KRAS-G12C-Y96C) cells (P01116 whole entry G12C/Y96C): as the sequence (P01116 whole entry G12C/H95Q) above, with Q95H, Y96C counted along it

Compound: C#Cc1cccc2cc(O)cc(-c3c(F)cc4c(N5CCN(C(=O)C(=C)F)[C@@H](CC#N)C5)nc(OC[C@@]56CCCN5C[C@H](F)C6)nc4c3F)c12 [Compound 8A, 2-((2S)-4-(7-(8-ethynyl-3-hydroxynaphth-1-yl)-6,8-difluoro-2-(((2R,7aS)-2-fluorotetrahydro-1H-pyrrolizin-7a(5H)-yl)methoxy)quinazolin-4-yl)-1-(2-fluoroacryloyl)piperazin-2-yl)acetonitrile]
- IC50 [1]: 0.24 nM
- IC50 [2]: 0.58 nM
- GI50 [3]: 3.44 nM
- GI50 [4]: 17.8 nM
- GI50 [5]: 33.3 nM
- GI50 [6]: 11.6 nM
- half-life [7]: 26.7 min
- microsomal CLint [7]: 53 µL/min/mg
- CLint scaled [7]: 49.7 mL/min/kg

Compound: C#Cc1cccc2cccc(-c3ccc4c(N5CCN(C(=O)C(=C)F)[C@@H](CC#N)C5)nc(OCC56CCCN5CCC6)nc4c3F)c12 [Compound 11, (S)-2-(4-(7-(8-ethynylnaphth-1-yl)-8-fluoro-2-((tetrahydro-1H-pyrrolizin-7a(5H)-yl)methoxy)quinazolin-4-yl)-1-(2-fluoroacryloyl)piperazin-2-yl)acetonitrile]
- IC50 [1]: 0.79 nM
- IC50 [2]: 0.86 nM
- GI50 [3]: 25.7 nM
- GI50 [4]: 62.6 nM
- GI50 [5]: 69.4 nM
- GI50 [6]: 56.7 nM
- half-life [7]: 38.8 min
- microsomal CLint [7]: 35.7 µL/min/mg
- CLint scaled [7]: 32.1 mL/min/kg

Compound: C#Cc1c(F)ccc2cc(O)cc(-c3c(F)cc4c(N5CCN(C(=O)C(=C)F)[C@@H](CC#N)C5)nc(OC[C@@]56CCCN5C[C@H](F)C6)nc4c3F)c12 [Compound 24A, 2-((2S)-4-(7-(8-ethynyl-7-fluoro-3-hydroxynaphth-1-yl)-6,8-difluoro-2-(((2R,7aS)-2-fluorotetrahydro-1H-pyrrolizin-7a(5H)-yl)methoxy)quinazolin-4-yl)-1-(2-fluoroacryloyl)piperazin-2-yl)acetonitrile]
- IC50 [1]: 0.25 nM
- IC50 [2]: 0.52 nM
- GI50 [3]: 4 nM
- GI50 [4]: 7.6 nM
- GI50 [5]: 5.5 nM
- GI50 [6]: 4 nM
- half-life [7]: 17.1 min
- microsomal CLint [7]: 81.3 µL/min/mg
- CLint scaled [7]: 73.2 mL/min/kg

Compound: C#Cc1cccc2cc(O)cc(-c3c(F)cc4c(N5CCN(C(=O)C(=C)F)[C@@H](CC#N)C5)nc(OCC56CCCN5CCC6)nc4c3F)c12 [Compound 7A, 2-((2S)-4-(7-(8-ethynyl-3-hydroxynaphth-1-yl)-6,8-difluoro-2-((tetrahydro-1H-pyrrolizin-7a(5H)-yl)methoxy)quinazolin-4-yl)-1-(2-fluoroacryloyl)piperazin-2-yl)acetonitrile]
- IC50 [1]: 0.62 nM
- IC50 [2]: 0.6 nM
- GI50 [3]: 5.28 nM
- GI50 [4]: 16.8 nM
- GI50 [5]: 34.6 nM
- GI50 [6]: 9.03 nM
- half-life [7]: 38.4 min
- microsomal CLint [7]: 36.1 µL/min/mg
- CLint scaled [7]: 32.5 mL/min/kg

Compound: C=C(F)C(=O)N1CCN(c2nc(OCC34CCCN3CCC4)nc3c(F)c(-c4cc(O)cc5cccc(Cl)c45)c(F)cc23)C[C@@H]1CC#N [Compound 22A, 2-((2S)-4-(7-(8-chloro-3-hydroxynaphth-1-yl)-6,8-difluoro-2-((tetrahydro-1H-pyrrolizin-7a(5H)-yl)methoxy)quinazolin-4-yl)-1-(2-fluoroacryloyl)piperazin-2-yl)acetonitrile]
- IC50 [1]: 0.47 nM
- IC50 [2]: 0.76 nM
- GI50 [3]: 7.23 nM
- GI50 [4]: 23.9 nM
- GI50 [5]: 34.1 nM
- GI50 [6]: 11.1 nM
- half-life [7]: 39.2 min
- microsomal CLint [7]: 35.6 µL/min/mg
- CLint scaled [7]: 33 mL/min/kg

Compound: C=C(F)C(=O)N1CCN(c2nc(OC[C@@]34CCCN3C[C@H](F)C4)nc3c(F)c(-c4cc(O)cc5cccc(Cl)c45)ccc23)C[C@@H]1CC#N [Compound 2]
- IC50 [1]: 0.22 nM
- IC50 [2]: 0.65 nM
- GI50 [3]: 18.9 nM
- GI50 [4]: 70.1 nM
- GI50 [5]: 93.9 nM
- GI50 [6]: 130 nM
- half-life [7]: 18.8 min
- microsomal CLint [7]: 73.7 µL/min/mg
- CLint scaled [7]: 66.3 mL/min/kg

Compound: C#Cc1cccc2cccc(-c3c(F)cc4c(N5CCN(C(=O)C(=C)F)[C@@H](CC#N)C5)nc(OCC56CCCN5CCC6)nc4c3F)c12 [Compound 18B, 2-((2S)-4-(7-(8-ethynylnaphth-1-yl)-6,8-difluoro-2-((tetrahydro-1H-pyrrolizin-7a(5H)-yl)methoxy)quinazolin-4-yl)-1-(2-fluoroacryloyl)piperazin-2-yl)acetonitrile]
- IC50 [1]: 0.5 nM
- IC50 [2]: 0.68 nM
- GI50 [3]: 4.89 nM
- GI50 [4]: 12.8 nM
- GI50 [5]: 29.9 nM
- GI50 [6]: 8.92 nM
- half-life [7]: 44.2 min
- microsomal CLint [7]: 35.6 µL/min/mg
- CLint scaled [7]: 33 mL/min/kg

Compound: C#Cc1c(F)ccc2cc(O)cc(-c3ccc4c(N5CCN(C(=O)C(=C)F)[C@@H](CC#N)C5)nc(OC[C@@]56CCCN5C[C@H](F)C6)nc4c3F)c12 [Compound 4]
- IC50 [1]: 0.44 nM
- IC50 [2]: 1.15 nM
- GI50 [3]: 5.2 nM
- GI50 [4]: 39.4 nM
- GI50 [5]: 50.6 nM
- GI50 [6]: 9.06 nM
- half-life [7]: 25.5 min
- microsomal CLint [7]: 54.3 µL/min/mg
- CLint scaled [7]: 48.9 mL/min/kg
